The record followed here is patent US20250325491A1, “POLYVALENT MOLECULE BASED LIPID NANOPARTICLES FOR NUCLEIC ACID DELIVERY” (Bio-TRIP B.V., priority 2022, published 2025).

Data set [1] is described as follows: Dynamic light scattering (DLS) of nanoparticles. Format: physicochemical. Particulars: siRNA-aNPs containing the polyvalent material (Table S3); SD over individual repeats. The method, then: The hydrodynamic diameter of the formulated particles was determined by a number-weighted mean diameter provided by dynamic light scattering (DLS) using a Zetasizer Nano ZS in combination with a Malvern Zetasizer NanoSampler (Malvern Instruments, Worcestshire, UK). The size dispersity was measured as the poly dispersity index (PDI). For the DLS measurements, 100 μl of the formulated nanoparticle was diluted into 700 μl of PBS (137 mM NaCl, 2.7 mM KCl, 10 mM Na2HPO4 and 1.8 mM KH2PO4) and equilibrated at room temperature before the analysis. Each sample was measured 5 times, 10 runs of each 10 seconds, at wavelength 633 nm, without fixing the attenuator and measurement position.

Data set [2] can be described thus: Solubility of the polyvalent molecules in ethanol, iso-propanol and tri-caprylin. How it is done:
The solubility can be checked by stirring about 20 mg of the polyvalent molecule in 1 gram of tricaprylin, ethanol or iso-propanol, and assessing whether all material spontaneously dissolves to create a clear/transparent solution (with a concentration of about 2 w/w %). The test can be done at about 20 degrees centigrade (room temperature) or at about 37 degrees centigrade.
Spontaneous dissolution upon stirring at room temperature giving a clear solution is a mark for solubility.

Data set [3] in a line: Stability of nanoparticle formulations (phase separation on dialysis or storage). Also noted: key to phase separation of siRNA-aNPs (Table S4): *: Indicates phase separation after two days of storage in the refrigerator at 4° C; key to phase separation of siRNA-aNPs (footnote mark, Table S5): *: Indicates phase separation after two days storage in the fridge at 4° C.; **: Indicates phase separation after overnight dialysis. Format: physicochemical. Particulars: siRNA-aNPs containing the polyvalent material; for phase separation of siRNA-aNPs (footnote mark, Table S5): overnight dialysis or storage at 4° C; for phase separation of siRNA-aNPs (Table S4): storage in the refrigerator at 4° C.

The nature of data set [4]: Cryo-TEM of nanoparticles. Format: physicochemical. The method, then: Size and shape of the nanoparticles was also assessed by cryo-transmission electron microscopy (cryo-TEM). The surface of 200-mesh lacey carbon supported copper grids (Electron Microscopy Sciences) was plasma charged for 40 seconds using a carbon coater (Cressington 208). Subsequently, 3 μl of nanoparticle sample (˜1 mg protein/ml) was pipetted on a grid and vitrified into a thin film by plunge vitrification in liquid ethane. This step was performed by using an automated robot (FEI Vitrobot Mark IV). Cryo-TEM imaging was acquired on the cryo-transmission electron microscope TITAN (Thermo Fisher), equipped with a field emission gun (FEG), a post-column Gatan imaging filter (model 2002) and a post-GIF 2 k×2 k Gatan CCD camera (model 794). The imaging was performed at 300 kV acceleration voltage in bright-field TEM mode with zero-loss energy filtering at 24,000× magnification (dose rate of 11.8 e−/Å2·s), and 1s acquisition time. Pictures and results are reported in Table S6, FIG. 7, FIG. 8, FIG. 9 (A), FIG. 15.

Data set [5] deals with RAW 264.7 cell line. Put plainly: MTS cytotoxicity assay. Format: cell-based. Particulars: RAW 264.7 cell line exposed to siRNA-aNPs with increasing amounts of the polyvalent molecule (FIG. 10). How it is done: MTS assays were carried out on multiple apolipoprotein nanoparticles (aNPs) of the invention. These assays were executed in line with protocols that are known in the art.
For orientation: Tetrazolium assays rely on reduction of a dye to a coloured formazan, in cell work by metabolically active cells.

Where [6] appears, read: 20 mg material per gram of solvent, spontaneous dissolution upon stirring giving a clear solution.

Like-named read-outs stand apart in the source and are kept apart here.

As to `CCCCCCCCC(O)CN(CCCN(C)CCCN(CC(O)CCCCCCCC)CC(O)CCCCCCCC)CC(O)CCCCCCCC` (mixture of isomers) [Example G9, Bis(3-aminopropyl)methylamine-EPX-C8-4], in data set [1], the “DLS Hydrodynamic diameter (number mean)” value stood at 73 ± 10 nm and the “DLS PDI” value turned out to be 0.18 ± 0.08.
As to `CCCCCCCCC(O)CN(CCN(CC(O)CCCCCCCC)CC(O)CCCCCCCC)CCN(CC(O)CCCCCCCC)CC(O)CCCCCCCC` (mixture of isomers) [Example G8, Bis(2-amino-ethyl)amine-EPX-C8-5], the “solubility in ethanol, iso-propanol and tri-caprylin” value (from here on “solubility in ethanol”) in data set [2] (setting [6]) is reported as “soluble in all three solvents at room temperature”. Moreover, in data set [1], the “DLS Hydrodynamic diameter (number mean)” value was determined as 84 ± 45 nm and the “DLS PDI” value stood at 0.2 ± 0.05.
With `CCCCCCCCOC(=O)CCN(CCC(=O)OCCCCCCCC)CCN(CCC(=O)OCCCCCCCC)CCN(CCC(=O)OCCCCCCCC)CCC(=O)OCCCCCCCC` [Example A10, Bis(2-aminoethyl)amine-ACR-C8-5], the “solubility in ethanol” value in data set [2] is “soluble in all three solvents at room temperature”.
As for `CCCCCCCCCCCCCCOC(=O)CCN(C)CCCN(CCCCN(CCCN(C)CCC(=O)OCCCCCCCCCCCCCC)CCCN(C)CCC(=O)OCCCCCCCCCCCCCC)CCCN(C)CCC(=O)OCCCCCCCCCCCCCC` [Example H1, G1-ACR-nC14-4/CH3-4], in data set [1], the “DLS Hydrodynamic diameter (number mean)” value is on record as 66 ± 7 nm and the “DLS PDI” value worked out at 0.45 ± 0.43. For the same compound, in data set [3], the “phase separation of siRNA-aNPs (footnote mark, Table S5)” value is recorded as “H1 *” and the “phase separation of siRNA-aNPs (Table S4)” value is recorded as “H1 *”.
`CCCCCCCCC(O)CN(CCCN(CC(O)CCCCCCCC)CC(O)CCCCCCCC)CCCN(CC(O)CCCCCCCC)CC(O)CCCCCCCC` (mixture of isomers) [Example G7, Bis(3-aminopropyl)amine-EPX-C8-5]: the “solubility in ethanol” value in data set [2] (setting [6]) was “soluble in all three solvents at room temperature”. Moreover, in data set [1], the “DLS Hydrodynamic diameter (number mean)” value was determined as 54 ± 1 nm and the “DLS PDI” value was 0.2 ± 0.06.
Turning to `CCCCCCCCOC(=O)CCN(CCCN(CCC(=O)OCCCCCCCC)CCC(=O)OCCCCCCCC)CCCN(CCC(=O)OCCCCCCCC)CCC(=O)OCCCCCCCC` [Example A9, Bis(3-Aminopropyl)Amine-ACR-C8-5], in data set [2] (setting [6]), the “solubility in ethanol” value is recorded as “soluble in all three solvents at room temperature”.
In the case of `CCCCCCCCC=CCCCCCCCC(=O)NCCCCC(N)C(=O)NCCCN(CCCCN(CCCNC(=O)C(N)CCCCNC(=O)CCCCCCCC=CCCCCCCCC)CCCNC(=O)C(N)CCCCNC(=O)CCCCCCCC=CCCCCCCCC)CCCNC(=O)C(N)CCCCNC(=O)CCCCCCCC=CCCCCCCCC` (centres unmarked) [Example J10, G1-Lysine-N^6-Oleate-4], the “solubility in ethanol” value in data set [2] (setting [6]) was “soluble in all three solvents at room temperature”.
Regarding `CCCCCCCCOC(=O)CCN(CCCN(C)CCCN(CCC(=O)OCCCCCCCC)CCC(=O)OCCCCCCCC)CCC(=O)OCCCCCCCC` [Example A11, Bis-(3-aminopropyl)methylamine-ACR-C8-4], in data set [2] (setting [6]), the “solubility in ethanol” value is given as “soluble in all three solvents at room temperature”. For the same compound, in data set [1], the “DLS Hydrodynamic diameter (number mean)” value came to 136 ± 45 nm and the “DLS PDI” value is reported as 0.14 ± 0.04.
With `CCCCCCCCCCCCCCOC(=O)CCN(CCCN(CCCCN(CCCN(CCC(=O)OCCCCCCCCCCCCCC)CCC(=O)OCCCCCCCCCCCCCC)CCCN(CCC(=O)OCCCCCCCCCCCCCC)CCC(=O)OCCCCCCCCCCCCCC)CCCN(CCC(=O)OCCCCCCCCCCCCCC)CCC(=O)OCCCCCCCCCCCCCC)CCC(=O)OCCCCCCCCCCCCCC` [Example A3, G1-ACR-nC14-8], in data set [1], the “DLS Hydrodynamic diameter (number mean)” value was 55 ± 0.7 nm and the “DLS PDI” value worked out at 0.14 ± 0.01.
Regarding `CCCCCCCCC=CCCCCCCCC(=O)NC(CCCNC(=N)N)C(=O)NCCCN(CCCCN(CCCNC(=O)C(CCCNC(=N)N)NC(=O)CCCCCCCC=CCCCCCCCC)CCCNC(=O)C(CCCNC(=N)N)NC(=O)CCCCCCCC=CCCCCCCCC)CCCNC(=O)C(CCCNC(=N)N)NC(=O)CCCCCCCC=CCCCCCCCC` (centres unmarked) [Example J11, G1-Arginine-Oleate-4], the “solubility in ethanol” value in data set [2] (setting [6]) is on record as “soluble in all three solvents at room temperature”.
For the compound `CCCCCCCCCCCCCCOC(=O)CCN(CCCN(CCCCN(CCCN(CCC(=O)OCCCCCCCCCCCCCC)C(C)=O)CCCN(CCC(=O)OCCCCCCCCCCCCCC)C(C)=O)CCCN(CCC(=O)OCCCCCCCCCCCCCC)C(C)=O)C(C)=O` [Example B2, G1-ACR-nC14-4/Ac-4], the “solubility in ethanol” value in data set [2] (setting [6]) is recorded as “soluble in all three solvents at room temperature”. In data set [1], the “DLS Hydrodynamic diameter (number mean)” value was found to be 67 nm and the “DLS PDI” value was determined as 0.09. In addition, in data set [3], the “phase separation of siRNA-aNPs (footnote mark, Table S5)” value was “B2 *” and the “phase separation of siRNA-aNPs (Table S4)” value is on record as “B2 *”.
`CC(C)CCCCCCCOC(=O)CCN(CCCN(CCCCN(CCCN(CCC(=O)OCCCCCCCC(C)C)CCC(=O)OCCCCCCCC(C)C)CCCN(CCC(=O)OCCCCCCCC(C)C)CCC(=O)OCCCCCCCC(C)C)CCCN(CCC(=O)OCCCCCCCC(C)C)CCC(=O)OCCCCCCCC(C)C)CCC(=O)OCCCCCCCC(C)C` [Example A6, G1-ACR-isoC10-8]: in data set [1], the “DLS Hydrodynamic diameter (number mean)” value is listed as 48 ± 1 nm and the “DLS PDI” value was 0.14 ± 0.02. Moreover, the “diameter of siRNA-aNPs visible in cryo-TEM and immuno-gold staining TEM images” value in data set [4] (siRNA-aNPs containing A6 (FIG. 9)) was “about 50 nm”. In addition, in data set [4] (siRNA-aNPs containing the polyvalent material, SD over n individual particles), the “Cryo-TEM Diameter” value is 53 ± 11 nm. Moreover, the “Cryo-TEM PDI” value in data set [4] (siRNA-aNPs containing the polyvalent material, n individual particles) is 0.02. The “cytotoxicity (MTS assay)” value in data set [5] is reported as “do not exercise cytotoxicity”.
As for `CCCCCCCCCCC(O)CN(CCCN(CCCCN(CCCN(CC(O)CCCCCCCCCC)CC(O)CCCCCCCCCC)CCCN(CC(O)CCCCCCCCCC)CC(O)CCCCCCCCCC)CCCN(CC(O)CCCCCCCCCC)CC(O)CCCCCCCCCC)CC(O)CCCCCCCCCC` (mixture of isomers) [Example G2, G1-EPX-nC10-8], the “solubility in ethanol” value in data set [2] (setting [6]) is “soluble in all three solvents at room temperature”. In addition, in data set [1], the “DLS Hydrodynamic diameter (number mean)” value amounted to 55 ± 4 nm and the “DLS PDI” value is 0.10 ± 0.01.
